In patent US9006450B2 (Boehringer Ingelheim International GmbH, priority 2010, dated 2015):

Biological target: T1, human ACC2 (Homo sapiens, UniProt O00763)
T1 construct: made in house; host or cells: insect cells (baculoviral expression system)
Experiment: ACC2 assay, spectrophotometric 384 well assay (NADH-linked, coupled lactate dehydrogenase/pyruvate kinase)
Format: biochemical
Details: ACC2 assay, hACC2 construct lacking 128 N-terminal amino acids, 25° C., 340 nm; read-out: IC50
Summary of the method: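 ADP output tracked via pyruvate kinase/lactate dehydrogenase NADH oxidation, slope at 340 nm over 15 min, 25° C, with 500 μM ATP and 200 μM each acetyl-CoA and NADH. Enzyme: insect-cell-expressed human ACC2, N-terminal 128 residues deleted; pH 7.5 Tris with citrate, KHCO3. IC50 from four-parameter regression versus vehicle and no-acetyl-CoA controls.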

T1 sequence (O00763 129-2458 limits assumed): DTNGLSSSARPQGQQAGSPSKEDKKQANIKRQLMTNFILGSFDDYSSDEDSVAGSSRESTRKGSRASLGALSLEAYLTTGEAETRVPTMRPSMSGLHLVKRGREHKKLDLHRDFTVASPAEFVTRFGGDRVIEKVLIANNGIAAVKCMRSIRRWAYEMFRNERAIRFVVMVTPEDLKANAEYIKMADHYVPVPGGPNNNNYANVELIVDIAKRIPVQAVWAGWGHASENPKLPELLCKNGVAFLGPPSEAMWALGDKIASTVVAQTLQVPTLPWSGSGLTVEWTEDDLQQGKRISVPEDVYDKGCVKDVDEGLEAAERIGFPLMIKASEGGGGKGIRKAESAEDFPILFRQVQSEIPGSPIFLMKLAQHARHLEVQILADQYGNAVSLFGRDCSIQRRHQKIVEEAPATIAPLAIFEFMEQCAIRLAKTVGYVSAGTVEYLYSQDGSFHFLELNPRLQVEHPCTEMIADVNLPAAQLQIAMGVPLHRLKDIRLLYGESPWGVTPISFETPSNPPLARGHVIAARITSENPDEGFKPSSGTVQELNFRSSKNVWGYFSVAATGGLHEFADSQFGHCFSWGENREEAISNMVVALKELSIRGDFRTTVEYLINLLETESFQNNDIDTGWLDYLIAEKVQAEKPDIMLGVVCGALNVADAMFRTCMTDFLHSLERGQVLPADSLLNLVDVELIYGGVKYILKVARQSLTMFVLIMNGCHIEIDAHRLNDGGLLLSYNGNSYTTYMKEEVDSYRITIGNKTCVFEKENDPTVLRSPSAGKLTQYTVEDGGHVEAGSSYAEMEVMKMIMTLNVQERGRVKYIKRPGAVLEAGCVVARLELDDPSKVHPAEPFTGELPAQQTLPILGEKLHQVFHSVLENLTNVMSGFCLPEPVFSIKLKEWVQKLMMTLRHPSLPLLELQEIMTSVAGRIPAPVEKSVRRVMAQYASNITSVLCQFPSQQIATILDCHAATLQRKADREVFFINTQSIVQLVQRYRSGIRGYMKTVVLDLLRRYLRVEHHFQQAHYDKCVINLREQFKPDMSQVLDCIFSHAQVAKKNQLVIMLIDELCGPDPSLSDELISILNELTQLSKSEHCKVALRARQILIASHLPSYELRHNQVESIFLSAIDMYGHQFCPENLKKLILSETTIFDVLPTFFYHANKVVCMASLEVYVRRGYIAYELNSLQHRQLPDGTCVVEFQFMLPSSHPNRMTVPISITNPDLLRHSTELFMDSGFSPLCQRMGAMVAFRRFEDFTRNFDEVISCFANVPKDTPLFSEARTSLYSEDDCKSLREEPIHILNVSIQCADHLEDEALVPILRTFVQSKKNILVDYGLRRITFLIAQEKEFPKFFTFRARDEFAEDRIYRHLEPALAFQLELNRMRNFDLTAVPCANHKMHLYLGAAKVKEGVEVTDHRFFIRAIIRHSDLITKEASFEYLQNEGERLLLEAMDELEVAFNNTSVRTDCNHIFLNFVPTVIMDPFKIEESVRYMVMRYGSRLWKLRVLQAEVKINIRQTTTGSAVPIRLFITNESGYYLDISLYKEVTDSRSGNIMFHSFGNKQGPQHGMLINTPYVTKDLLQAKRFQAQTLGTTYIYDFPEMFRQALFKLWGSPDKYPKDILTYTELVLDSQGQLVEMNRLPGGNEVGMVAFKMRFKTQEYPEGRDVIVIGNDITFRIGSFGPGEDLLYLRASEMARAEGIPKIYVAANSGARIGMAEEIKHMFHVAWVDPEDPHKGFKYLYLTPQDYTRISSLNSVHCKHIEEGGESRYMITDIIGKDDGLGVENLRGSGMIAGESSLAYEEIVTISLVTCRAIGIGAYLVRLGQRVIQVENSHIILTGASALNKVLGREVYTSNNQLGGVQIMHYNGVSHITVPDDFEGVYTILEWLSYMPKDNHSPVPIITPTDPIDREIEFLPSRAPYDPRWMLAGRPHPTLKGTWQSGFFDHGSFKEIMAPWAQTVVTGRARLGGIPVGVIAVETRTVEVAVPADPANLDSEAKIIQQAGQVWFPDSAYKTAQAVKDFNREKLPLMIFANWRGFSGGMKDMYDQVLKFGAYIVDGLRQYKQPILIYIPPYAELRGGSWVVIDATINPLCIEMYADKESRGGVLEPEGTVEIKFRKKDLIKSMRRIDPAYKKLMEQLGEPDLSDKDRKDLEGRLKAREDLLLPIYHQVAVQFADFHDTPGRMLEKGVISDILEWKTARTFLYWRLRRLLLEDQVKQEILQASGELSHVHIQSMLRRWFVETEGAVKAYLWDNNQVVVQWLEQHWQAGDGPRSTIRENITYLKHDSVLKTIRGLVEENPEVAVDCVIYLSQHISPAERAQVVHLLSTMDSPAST

Structure (SMILES) | IC50
CCOc1ccc(N2CCC(c3ccc([C@H](C)NC(=O)C4(C)COC4)cc3)CC2)cc1 [Example 6.27] | 4.8 µM
CCOc1ccc(N2CCC(c3ccc([C@H](C)NC(=O)Cn4ccnc4)cc3)CC2)cc1 [Example 6.28] | 1.3 µM
CCOc1ccc(N2CCC(c3ccc([C@H](C)NC(=O)c4cc[nH]n4)cc3)CC2)cc1 [Example 6.29] | 3.6 µM
CCOc1ccc(N2CCC(c3ccc([C@H](C)NC(=O)CCOC)cc3)CC2)cc1 [Example 6.30] | 1.1 µM
CCOc1ccc(N2CCC(c3ccc([C@H](C)NC(=O)c4cccnc4)cc3)CC2)cc1 [Example 6.31] | 2.8 µM
CCOc1ccc(N2CCC(c3ccc([C@H](C)NC(=O)Cc4cccnc4)cc3)CC2)cc1 [Example 6.32] | 0.86 µM
CCOc1ccc(N2CCC(c3ccc([C@H](C)NC(=O)c4nccs4)cc3)CC2)cc1 [Example 6.33] | 3.1 µM
CCOc1ccc(N2CCC(c3ccc([C@H](C)NC(=O)C4(C(F)(F)F)CC4)cc3)CC2)cc1 [Example 6.34] | 0.25 µM
CCOc1ccc(N2CCC(c3ccc([C@H](C)NC(=O)c4ncc[nH]4)cc3)CC2)cc1 [Example 6.35] | 7.1 µM
CCOc1ccc(N2CCC(c3ccc([C@H](C)NC(=O)c4cnon4)cc3)CC2)cc1 [Example 6.36] | 9.1 µM
CCOc1ccc(N2CCC(c3ccc([C@H](C)NC(=O)C4CC(OC)C4)cc3)CC2)cc1 (stereo partly drawn) [Example 6.37] | 0.76 µM
CCOc1ccc(N2CCC(c3ccc([C@H](C)NC(=O)C4CC(F)C4)cc3)CC2)cc1 (stereo partly drawn) [Example 6.38] | 0.09 µM
CCOc1ccc(N2CCC(c3ccc([C@H](C)NC(=O)CCC#N)cc3)CC2)cc1 [Example 6.39] | 1.3 µM
CCOc1ccc(N2CCC(c3ccc([C@H](C)NC(=O)c4ccncc4)cc3)CC2)cc1 [Example 6.40] | 1.2 µM
CCOc1ccc(N2CCC(c3ccc([C@H](C)NC(=O)c4ncn[nH]4)cc3)CC2)cc1 [Example 6.41] | 4.1 µM
CCOc1ccc(N2CCC(c3ccc([C@H](C)NC(=O)c4cncnc4)cc3)CC2)cc1 [Example 6.42] | 2.8 µM
CCOc1ccc(N2CCC(c3ccc([C@H](C)NC(=O)/C=N/OC)cc3)CC2)cc1 [Example 6.43] | 1.1 µM
CCOc1ccc(N2CCC(c3ccc([C@H](C)NC(=O)C(C)(C)OC)cc3)CC2)cc1 [Example 6.44] | 25 µM
CCOc1ccc(N2CCC(c3ccc([C@H](C)NC(=O)C4(C)CCC4)cc3)CC2)cc1 [Example 6.45] | 2.6 µM
CCOc1ccc(N2CCC(c3ccc([C@H](C)NC(=O)c4cscn4)cc3)CC2)cc1 [Example 6.46] | 10.4 µM
CCOc1ccc(N2CCC(c3ccc([C@H](C)NC(=O)c4cocn4)cc3)CC2)cc1 [Example 6.47] | 0.73 µM
CCOc1ccc(N2CCC(c3ccc([C@H](C)NC(=O)CO)cc3)CC2)cc1 [Example 6.48] | 3.7 µM
CCOc1ccc(N2CCC(c3ccc([C@H](C)NC(=O)CNC(=O)OC(C)(C)C)cc3)CC2)cc1 [Example 6.49] | 8.3 µM
CC(=O)N[C@@H](C)c1ccc(C2CCN(c3ccc(OC4CCOCC4)cc3)CC2)cc1 [Example 7.1, (S)—N-[1-(4-{1-[4-(Tetrahydro-2H-pyran-4-yloxy)-phenyl]-piperidin-4-yl}-phenyl)-ethyl]-acetamide] | 0.58 µM
CC(=O)N[C@@H](C)c1ccc(C2CCN(c3cccc(OC4CCOCC4)c3)CC2)cc1 [Example 7.2] | 0.19 µM
CCOCCOc1ccc(N2CCC(c3ccc([C@H](C)NC(C)=O)cc3)CC2)cc1 [Example 8.1] | 0.44 µM
CCOCCOc1cccc(N2CCC(c3ccc([C@H](C)NC(C)=O)cc3)CC2)c1 [Example 8.2] | 0.3 µM
CC(=O)N[C@@H](C)c1ccc(C2CCN(c3cccc(OCC4CC4)c3)CC2)cc1 [Example 8.3] | 0.2 µM
CC(=O)N[C@@H](C)c1ccc(C2CCN(c3cccc(OCC(C)C)c3)CC2)cc1 [Example 8.4] | 0.4 µM
CC(=O)N[C@@H](C)c1ccc(C2CCN(c3cccc(OC4CCCC4)c3)CC2)cc1 [Example 8.5] | 0.22 µM
